Tests used:
[1] = target: human A2A adenosine receptor (Homo sapiens (Human), UniProt P29274); assay: A2A receptor affinity binding assay (radioligand filtration binding or SPA, [3H]SCH58261); conditions: membranes from HEK293 or CHO cells expressing human A2A; Method (A) filtration or Method (B) SPA
[2] = target: human A2B adenosine receptor (Homo sapiens (Human), UniProt P29275); assay: A2B binding affinity radioligand filtration binding assay; conditions: membranes from HEK293 cells expressing human A2B; tritiated proprietary A2B antagonist
Sequence of human A2B adenosine receptor (P29275 whole entry): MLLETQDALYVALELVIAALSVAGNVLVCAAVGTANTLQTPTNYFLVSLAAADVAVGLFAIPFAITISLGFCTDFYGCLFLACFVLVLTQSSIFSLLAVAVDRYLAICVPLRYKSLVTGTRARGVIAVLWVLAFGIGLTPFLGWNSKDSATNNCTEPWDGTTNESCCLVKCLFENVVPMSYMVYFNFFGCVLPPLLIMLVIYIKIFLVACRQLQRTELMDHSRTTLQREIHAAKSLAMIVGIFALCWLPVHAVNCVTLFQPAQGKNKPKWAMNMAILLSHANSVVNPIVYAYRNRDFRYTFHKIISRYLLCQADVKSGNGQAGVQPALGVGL

Sequence of human A2A adenosine receptor (P29274 whole entry): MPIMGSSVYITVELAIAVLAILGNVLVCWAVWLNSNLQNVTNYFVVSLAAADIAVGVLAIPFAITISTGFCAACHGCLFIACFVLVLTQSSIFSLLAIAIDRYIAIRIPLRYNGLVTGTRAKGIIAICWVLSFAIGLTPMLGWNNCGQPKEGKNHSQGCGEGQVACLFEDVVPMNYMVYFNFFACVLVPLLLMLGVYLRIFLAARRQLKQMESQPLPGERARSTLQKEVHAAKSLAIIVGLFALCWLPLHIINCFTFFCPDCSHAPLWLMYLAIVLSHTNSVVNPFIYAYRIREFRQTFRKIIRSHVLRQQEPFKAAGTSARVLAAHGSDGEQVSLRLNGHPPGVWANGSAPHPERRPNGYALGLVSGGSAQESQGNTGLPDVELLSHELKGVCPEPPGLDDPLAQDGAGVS

Row | Structure (SMILES) | IC50 [1] [nM] | IC50 [2] [nM]
1 | COc1cccc2c1nc(N)n1nc([C@H]3C[C@@](N)(c4ccc(C(C)(C)O)cn4)C3)nc21 [Ex-138, 2-(6-((l1,3r)-1-amino-3-(5-amino-7-methoxy-[1,2,4]triazolo[1,5-c]quinazolin-2-yl)cyclobutyl)pyridin-3-yl)propan-2-ol] | 9.8 | 12.5
2 | COc1cccc2c1nc(N)n1nc(C3CC3c3c[nH]nc3C(F)(F)F)nc21 (stereo not shown) [Ex-25, 7-methoxy-2-{2-[3-(trifluoromethyl)-1H-pyrazol-4-yl]cyclopropyl} [1,2,4] triazolo[1,5-c] quinazolin-5-amine] | 9.9 | 96.3
3 | COc1cccc2c1nc(N)n1nc(C3CC3Cc3ccc(F)cc3)nc21 (stereo not shown) [Ex-41] | 7 | 127
4 | COc1cccc2c1nc(N)n1nc(C3CC3c3ccc4c(c3)NCCO4)nc21 (stereo not shown) [Ex-24, 2-[2-(3,4-dihydro-2H-1,4-benzoxazin-6-yl)cyclopropy1]-7-methoxy[1,2,4]triazolo [1,5-c]quinazolin-5-amine] | 9 | 42.6
5 | COc1cccc2c1nc(N)n1nc([C@H]3C[C@H](c4ccc(C(C)(C)O)cc4)C3)nc21 [Ex-43, 2-(4-((1r,3r)-3-(5-amino-7-methoxy-[1,2,4]triazolo[1,5-c]quinazolin-2-yl)cyclobutyl)phenyl)propan-2-ol] | 10.9 | 10.2
6 | COc1cccc2c1nc(N)n1nc(C3CC3c3cnn(CCO)c3)nc21 (stereo not shown) [Ex-23, 2-{4-[2-(5-amino-7-methoxy[1,2,4]triazolo [1,5-c]quinazolin-2-yl)cyclopropyl]-1H-pyrazol-1-yl} ethan-1-ol] | 8.3 | 118
7 | COc1cccc2c1nc(N)n1nc([C@H]3C[C@H](c4ccc(C(C)(C)N)cn4)C3)nc21 [Ex-68, 2-((1r,3r)-3-(5-(2-aminopropan-2-yl)pyridin-2-yl)cyclobutyl)-7-methoxy-[1,2,4]triazolo[1,5-c]quinazolin-5-amine] | 2 | 2.2
8 | COc1cccc2c1nc(N)n1nc(C3CC3c3cncc(C(C)(C)O)c3)nc21 (stereo not shown) [Ex-16, 2-{5-[2-(5-amino-7-methoxy[1,2,4]triazolo [1,5-c]quinazolin-2-yl)cyclopropyl]pyridin-3-yl} propan-2-ol] | 4 | 15.5
9 | COc1cccc2c1nc(N)n1nc(C3CC3c3ccc4c(c3)C(=O)NC4)nc21 (stereo not shown) [Ex-6, 6-[2-(5-amino-7-methoxy[1,2,4]triazolo [1,5-c]quinazolin-2-yl)cyclopropyl]-2,3-dihydro-1H-isoindol-1-one] | 0.9 | 13.2
10 | COc1cccc2c1nc(N)n1nc(C3(c4ccccc4)CC3)nc21 [Ex-37, 7-methoxy-2-(1-phenylcyclopropyl) [1,2,4]triazolo[1,5-c] quinazolin-5-amine] | 17.7 | 1980
11 | COc1cccc2c1nc(N)n1nc([C@@H]3C[C@H]3c3cnn(C)c3)nc21 [Ex-2, 7-methoxy-2-((1r,2r)-2-(1-methyl-1H-pyrazol-4-yl)cyclopropyl)-[1,2,4]triazolo[1,5-c]quinazolin-5-amine] | 2.6 | 50.4
12 | COc1cccc2c1nc(N)n1nc(C3CC3c3ccc4nnc(C)n4c3)nc21 (stereo not shown) [Ex-9, 7-methoxy-2-[2-(3-methyl[1,2,4]triazolo [4,3-a]pyridin-6-yl)cyclopropyl][1,2,4] triazolo[1,5-c] quinazolin-5-amine] | 2 | 337
13 | COc1cccc2c1nc(N)n1nc(C3CC3c3ccc4cnn(C)c4c3)nc21 (stereo not shown) [Ex-21, 7-methoxy-2-[2-(1-methyl-1H-indazol-6-yl)cyclopropyl][1,2,4] triazolo[1,5-c] quinazolin-5-amine] | 6.9 | 104
14 | COc1cccc2c1nc(N)n1nc([C@H]3C[C@@H](c4ccccc4)C3)nc21 [Ex-135, 7-methoxy-2-((1s,3s)-3-phenylcyclobutyl)-[1,2,4]triazolo[1,5-c]quinazolin-5-amine] | 7.3 | 35.3
15 | COc1cccc2c1nc(N)n1nc(C3CC3c3cncc(F)c3)nc21 (stereo not shown) [Ex-18, 2-[2-(5-fluoropyridin-3-yl)cyclopropyl]-7-methoxy[1,2,4]triazolo [1,5-c]quinazolin-5-amine] | 5.5 | 252
16 | COc1cccc2c1nc(N)n1nc(C3CC3Cc3ccc(F)cc3)nc21 (stereo not shown) [Ex-40, 2-(2-(4-fluorobenzyl)cyclopropyl)-7-methoxy-[1,2,4]triazolo[1,5-c]quinazolin-5-amine] | 1.4 | 7.6
17 | COc1cccc2c1nc(N)n1nc(C3CC3c3cccc4c3CNC4=O)nc21 (stereo not shown) [Ex-20, 4-[2-(5-amino-7-methoxy[1,2,4]triazolo [1,5-c]quinazolin-2-yl)cyclopropyl]-2,3-dihydro-1H-isoindol-1-one] | 6.5 | 395
18 | COc1cccc2c1nc(N)n1nc(C3CC3c3ccc(C)nc3)nc21 (stereo not shown) [Ex-11, 7-methoxy-2-[2-(6-methylpyridin-3-yl)cyclopropyl][1,2,4] triazolo[1,5-c] quinazolin-5-amine] | 3.1 | 78.4

Row | Structure (SMILES) | IC50 [1] [nM] | IC50 [2] [nM]
19 | COc1cccc2c1nc(N)n1nc(C3CC3c3cn4ccnc4cc3C)nc21 (stereo not shown) [Ex-7] | 1.3 | 66.1
20 | COc1cccc2c1nc(N)n1nc([C@@H]3C[C@H]3c3ccccc3)nc21 [Ex-34, 7-methoxy-2-[(1r,2r)-2-phenylcyclopropyl] [1,2,4]triazolo[1,5-c] quinazolin-5-amine] | 0.1 | 18.2
21 | COc1cccc2c1nc(N)n1nc(C3CC3c3cccc(NC(C)=O)c3)nc21 (stereo not shown) [Ex-5, N-{3-[2-(5-amino-7-methoxy[1,2,4]triazolo [1,5-c]quinazolin-2-yl)cyclopropyl]phenyl} acetamide] | 0.5 | 15.4
22 | COc1cccc2c1nc(N)n1nc([C@H]3C[C@@](O)(c4ccc(C(C)(C)O)cn4)C3)nc21 [Ex-137, (1r,3r)-3-(5-amino-7-methoxy-[1,2,4]triazolo[1,5-c]quinazolin-2-yl)-1-(5-(2-hydroxypropan-2-yl)pyridin-2-yl)cyclobutan-1-ol] | 4 | 2.1
23 | COc1cccc2c1nc(N)n1nc([C@H]3C[C@H](c4ncc(C(C)(C)N)nc4C)C3)nc21 [Ex-90, 2-((1r,3r)-3-(5-(2-aminopropan-2-yl)-3-methylpyrazin-2-yl)cyclobutyl)-7-methoxy-[1,2,4]triazolo[1,5-c]quinazolin-5-amine] | 0.6 | 11.2
24 | COc1cccc2c1nc(N)n1nc(C3CC3c3nc4ccccc4n3C)nc21 (stereo not shown) [Ex-3, 7-methoxy-2-[2-(1-methyl-1H-benzimidazol-2-yl)cyclopropyl][1,2,4] triazolo[1,5-c] quinazolin-5-amine] |  | 2.9
25 | COc1cccc2c1nc(N)n1nc([C@H]3C[C@H](c4ncc(C(C)(C)N)cc4C)C3)nc21 [Ex-83, 2-((1r,3r)-3-(5-(2-aminopropan-2-yl)-3-methylpyridin-2-yl)cyclobutyl)-7-methoxy-[1,2,4]triazolo[1,5-c]quinazolin-5-amine] |  | 1.6
26 | COc1cccc2c1nc(N)n1nc([C@H]3C[C@@H](c4cnc(C(C)(C)N)c(C)n4)C3)nc21 [Ex-122, 2-((1s,3s)-3-(5-(2-aminopropan-2-yl)-6-methylpyrazin-2-yl)cyclobutyl)-7-methoxy-[1,2,4]triazolo[1,5-c]quinazolin-5-amine] | 15.9 | 
27 | COc1cccc2c1nc(N)n1nc([C@H]3C[C@@H](c4ncc(C5(O)COC5)cc4C)C3)nc21 [Ex-119, 3-{6-[cis-3-(5-amino-7-methoxy[1,2,4]triazolo[1,5-c]quinazolin-2-yl)cyclobutyl]-5-methylpyridin-3-yl}oxetan-3-ol] | 1.8 | 
28 | COc1cccc2c1nc(N)n1nc([C@H]3C[C@H](c4ccc(C(C)N)cn4)C3)nc21 (stereo partly drawn) [Ex-72, 2-{trans-3-[5-(1-aminoethyl)pyridin-2-yl]cyclobutyl}-7-methoxy[1,2,4]triazolo[1,5-c]quinazolin-5-amine] | 7.9 | 
29 | COc1cc(F)cc2c1nc(N)n1nc([C@H]3C[C@@H](c4ccc(C(C)(C)O)cc4)C3)nc21 [Ex-50, 2-{4-[cis-3-(5-amino-9-fluoro-7-methoxy [1,2,4]triazolo [1,5-c]quinazolin-2-yl)cyclobutyl]phenyl} propan-2-ol] | 1 | 
30 | COc1cccc2c1nc(N)n1nc([C@H]3C[C@@H](c4ccc(C(N)C(F)(F)F)cc4)C3)nc21 (single isomer, unassigned) [Ex-75, 2-{cis-3-[4-(1-amino-2,2,2-trifluoroethyl)phenyl]cyclobutyl}-7-methoxy[1,2,4]triazolo[1,5-c]quinazolin-5-amine] | 0.3 | 
31 | COc1cccc2c1nc(N)n1nc([C@H]3C[C@H](c4cnc(CN)nc4)C3)nc21 [Ex-113, 2-{trans-3-[2-(aminomethyl)pyrimidin-5-yl]cyclobutyl}-7-methoxy[1,2,4]triazolo[1,5-c]quinazolin-5-amine] | 2.2 | 
32 | COc1cccc2c1nc(N)n1nc([C@H]3C[C@H](c4ccc(C(N)C(F)(F)F)cc4)C3)nc21 (stereo partly drawn) [Ex-79, 2-{trans-3-[4-(1-amino-2,2,2-trifluoroethyl)phenyl]cyclobutyl}-7-methoxy[1,2,4]triazolo[1,5-c]quinazolin-5-amine] | 2.7 | 
33 | COc1cccc2c1nc(N)n1nc([C@H]3C[C@H](c4ncc(C5(N)COC5)cc4C)C3)nc21 [Ex-124, 2-{trans-3-[5-(3-aminooxetan-3-yl)-3-methylpyridin-2-yl]cyclobutyl}-7-methoxy[1,2,4]triazolo[1,5-c]quinazolin-5-amine] | 0.4 | 
34 | COc1cccc2c1nc(N)n1nc([C@H]3C[C@@H](c4ccc(C5(N)CC(F)(F)C5)cn4)C3)nc21 [Ex-140, 2-((1s,3s)-3-(5-(1-amino-3,3-difluorocyclobutyl)pyridin-2-yl)cyclobutyl)-7-methoxy-[1,2,4]triazolo[1,5-c]quinazolin-5-amine] | 5.4 | 
35 | COc1cccc2c1nc(N)n1nc([C@H]3C[C@H](c4ncc(C(C)(C)N)nc4C(F)(F)F)C3)nc21 [Ex-126, 2-{trans-3-[5-(2-aminopropan-2-yl)-3-(trifluoromethyl)pyrazin-2-yl]cyclobutyl}-7-methoxy[1,2,4]triazolo[1,5-c]quinazolin-5-amine] | 4.6 | 

From patent publication US20250171447A1, “ADENOSINE RECEPTOR ANTAGONISTS, PHARMACEUTICAL COMPOSITIONS AND THEIR USE THEREOF” (Merck Sharp & Dohme LLC, priority 2022, published 2025)
